*1 amine or outer side, *2 acyl side, *3 side chain or, on linkers, in order; H or OH if unused. Where a SMILES comes first, the peptide text is derived from it. CO = O=C([*:1])[*:2]
Molecular target: T1, rSmSP2 (SmSP2, serine protease 2; recombinant protease domain) (Schistosoma mansoni, UniProt V5UMR3)
T1 construct: gene SP2; about 28 kDa on SDS-PAGE, active form
Assay: fluorogenic kinetic assay, residual P-F-R-AMC hydrolysis
Assay type: biochemical
Excerpt: fluorogenic kinetic assay, residual P-F-R-AMC hydrolysis on rSmSP2 (SmSP2, serine protease 2; recombinant protease domain)

T1 sequence (V5UMR3 entry or part of it): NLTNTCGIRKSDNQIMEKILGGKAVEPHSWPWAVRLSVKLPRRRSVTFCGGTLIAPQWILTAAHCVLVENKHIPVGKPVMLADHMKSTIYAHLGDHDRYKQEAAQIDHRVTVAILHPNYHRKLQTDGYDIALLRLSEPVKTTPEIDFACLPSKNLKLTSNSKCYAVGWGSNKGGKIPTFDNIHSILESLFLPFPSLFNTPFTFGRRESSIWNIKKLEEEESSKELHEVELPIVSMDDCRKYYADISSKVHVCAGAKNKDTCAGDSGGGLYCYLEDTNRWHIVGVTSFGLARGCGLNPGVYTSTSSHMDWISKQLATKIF

Compound: O=c1oc(Cl)c(Cl)c2ccccc12
- inhibition at 100 µM (read-out: Inhibition (%)^c): 71.4 ± 3.3%

Compound: NCCc1ccc(S(=O)(=O)F)cc1 [Pefabloc SC]
- percent inhibition (1000 µM, 50 μM P-F-R-AMC, 0.1 M Tris-HCl pH 8.0, 37 °C, 10 min preincubation, covalent): 100%

Compound: CC(C)[C@H](NC(=O)[C@H](CCCNC(=N)N)NC(=O)N[C@@H](Cc1ccccc1)C(=O)O)C(=O)N[C@H](C=O)CCCNC(=N)N [Antipain] ({Phe-CO}-Arg-Val-Arg-aldehyde)
- inhibition at 20 µM (read-out: Inhibition (%)^c): 100%

Compound: CC(=O)N[C@@H](CC(C)C)C(=O)N[C@@H](CC(C)C)C(=O)N[C@H](C=O)CCCNC(=N)N [Leupeptin, N-acetyl-L-leucyl-L-leucyl-L-argininal]
- inhibition at 20 µM (read-out: Inhibition (%)^c): 100%

Compound: N=C(N)c1ccccc1 [Benzamidine]
- inhibition at 1000 µM (read-out: Concentration): 100%

Source: article PMC5931690, “SmSP2: A serine protease secreted by the blood fluke pathogen Schistosoma mansoni with anti-hemostatic properties” (PLoS Neglected Tropical Diseases, 2018)
